Test results taken from patent US20080271210A1, “Oryza Sativa Lectin-Like Receptor Kinase 1 (Oslrk1), a Gene Involved in Plant Development” (Temasek Life Sciences Laboratory National University of …, priority 2004, published 2008).

What was measured:
[1] = tested on: WT seeds and seedlings; experiment: Germination and growth of WT seeds in galactose/mannose containing media; type: in vivo, Oryza sativa
Text: (§1) The altered expression of the Oslrk1 by different sugars described above led us to study the response of the mutant to these monosaccharides and sucrose. The WT and the mutant seeds were germinated and grown in Gal, Man, Glu, Fm along with Suc at different concentrations (ranging from 0.1% to 1%) and Suc alone containing medium as a control. The following parameters were taken into account during observation: the shoot length, the number and the length of adventitious roots and the germination rate. […] Out of these three sugars tested, Man was selected as an example as its inhibitory effect was similar in seeds and seedlings of WT and mutant as shown in FIGS. 10A and B. The seed germination was severely affected by Man.
(§2) At 1.0% of the Gal, the shoot length decreased by half in the mutant, whereas only by 15% in the WT seedlings. […] Apart from this, the germination rate of the WT seeds dropped to 85% whereas in the mutant it dropped to 30%.
(§3) Germination of WT and mutant seeds in galactose/mannose containing media. WT and mutant seeds were germinated separately on MS medium containing 0.8% agar and 1% sucrose. In addition, D(+)galactose/D(+/−)mannose was added in different concentrations (0.1, 0.2, 0.5, and 1.0%) along with a control (MS with 1% of sucrose). At 14 days after germination, the observations for adventitious root number and length (cm), shoot length (cm) and germination rate (%) were recorded.

[2] = tested on: Oslrk11; experiment: RT-PCR of Oslrks in treated 2 week-old seedlings; type: in vivo, Oryza sativa; conditions: treated vs control
Protocol: (§4) RT-PCRs were carried out on RNA samples isolated from 2 week-old seedlings treated with various sugar (FIG. 13), hormone (FIG. 14), and abiotic stresses (FIG. 15) using primers designated to either 3′ or 5′ Untranslated Regions (UTRs) of the 15 Oslrks found in Table 2. For each Oslrk two lanes in the gel are found, the first lane is the control and the second one treatment samples.
(§5) Table 3 provides a summary of all the above referenced data on the Oslrks, showing the RT-PCR results of various treatments, including sugar, hormone and abiotic stress and northern blot results on various tissues of rice plant grown in normal conditions, and the ESTs, or cDNAs availability in the database. In the table, “I” represents induced expression and “R” represents repressed expression.

[3] = tested on: Oslrk4; experiment: RT-PCR of Oslrks in treated 2 week-old seedlings; type: in vivo, Oryza sativa; conditions: treated vs control
Protocol: as §4, §5

[4] = tested on: Oslrk8; experiment: RT-PCR of Oslrks in treated 2 week-old seedlings; type: in vivo, Oryza sativa; conditions: treated vs control
Protocol: as §4, §5

[5] = tested on: Oslrk5; experiment: RT-PCR of Oslrks in treated 2 week-old seedlings; type: in vivo, Oryza sativa; conditions: treated vs control
Protocol: as §4, §5

[6] = tested on: Oslrk1 mutant seeds and seedlings; experiment: Germination and growth of Oslrk1 mutant seeds in galactose/mannose containing media; type: in vivo, Oryza sativa; conditions: for behavior of the mutant compared with the WT upon treatment: sugar 0.1% to 1% along with Suc
Text: as §1, §2, §3

[7] = tested on: Oslrk1 gene; experiment: Northern-blot of Oslrk1 transcript in WT seedlings treated with hormones and SA; type: in vivo, Oryza sativa; conditions: for Oslrk1 gene expression repressed by: 3' UTR probe, vs untreated
Text: Differential Regulation of Oslrk1 Gene Expression by Hormones. Receptor-like kinases were postulated to be involved in signal transduction events as they perceive a signal via a ligand-binding extracellular domain and transmit it through the serine/threonine kinase domain into the cytosol (Shiu and Bleecker, 2001). In order to know possible factors influencing the Oslrk1 gene regulation, we analyzed promoter of the Oslrk1 (1.5 kb) for the presence of cis-acting elements using the program PlantCARE (Lescot et al., 2002). Three TGAGC motifs observed in MeJA inducible genes were found in promoter of the Oslrk1 at the positions −186, −657 and −1190. Apart from these, three GA3 inducible motifs (P-box-CCTTxt) −101, −206 and −740 bp upstream of the Oslrk1 ORF were located. In addition, five salicylic acid inducible motifs (TCA-elementcAGAAa/ga) at the positions of −321, −601, −604, −855 and −1135 were detected. The presence of MeJA, GA and SA responsive cis-elements in the Oslrk1 promoter indicated possible regulatory roles of these factors. The promoter analysis led us to study the effect of different hormones and compounds on the Oslrk1 transcription. The WT seeds were germinated for […] then seedlings were transferred to the medium containing one of the following chemicals: […], MeJA, GA3 or ABA at concentration 100 uM and SA (5 mM) for 24 hours (Materials and Methods). The total RNA isolated from the untreated and treated seedlings were used in Northern-blot hybridization using 3′ UTR of the Oslrk1 gene as a probe. The treatment with GA3 and SA repressed the Oslrk1 gene expression (FIG. 8A) by 2.5 and 3.3 times respectively. […] In order to confirm the level of induction of the Oslrk1 gene by MeJA over time, in another series of experiments, a time course was performed after hormone treatment. Seven day old seedlings were sprayed with 100 uM of MeJA solution and they were harvested in 1, 2, 4, 6, 8, and 12 hours.
RNA Isolation and Northern-blot Analysis. RNA was isolated from different organs of rice plant at different developmental stages (roots of 10-14 days old seedlings and 2 months old plants, 10-14 days old seedlings, young and mature leaves, panicles at the flowering stage and calli) using a RNeasy Plant mini kit (Qiagen,). The RNA (10 ug) was fractionated on a 1.2% denaturating formaldehyde agarose gel and transferred onto a Hybond-N^+ membrane (Amersham). The bolts were hybridized with dogoxigenin (DIG)-labeled probes in DIG Easy Hyb solution (Roche) at 50° C. After hybridization, membranes were washed twice with 2×SSC and 0.1% SDS for 15 min, then twice with 0.5×SSC and 0.1% SDS for 15 min at 68° C. Detection was carried out according to manufacturer using DIG Wash and Block Buffer set and chemiluminescent substrate CDP Star™ (Roche). DIG-labelled probe corresponded to 3′UTR and lectin domain of Oslrk1 was used. For the control of RNA quantity, DIG-probe corresponding to rice Actin1 gene was synthesized using the following primers: […]
(§6) The RT-PCRs and Northern blots were repeated at least thrice and similar results were obtained. The quantification of the intensity of the hybridization signals was performed using Quantity ONE 4.5.0 software in Gel doc XR documentation system (Bio-Rad Laboratories, Inc., USA). The level of actual expression was calculated as a ratio of intensity of specific signal (Oslrk1 3′UTR probe) to the intensity of signal of positive control (rice Act1).
Treatment of WT Seedlings with Hormones and Sugars. Two week old WT seedlings were transferred to MS medium containing 100 μM of different hormones, such as Indole 3-Acetic Acid (IAA), Abscisic acid (ABA), Methyl Jasmonate (MeJA), or Gibbrellic Acid (GA3) and 5 mM of Salicylic Acid (SA), and were grown for 24 hours under normal day/light conditions. Total RNA was extracted from root of the seedlings and whole seedlings. […]

[8] = tested on: WT seedlings; experiment: Growth of WT seedlings in MeJA or GA3 containing medium; type: in vivo, Oryza sativa
Protocol: (§7) In order to study the effect of phytohormones on the Oslrk1 mutant, seeds were grown in medium containing different concentrations of either MeJA ([…]) (FIG. 9A) or GA3 (0.5, 1, 5 and 10 μm) (data not shown) along with WT as a control The number and length of adventitious roots, number of lateral roots and shoot length were measured. […] In the WT seedlings the number of the lateral roots was increased at 5 uM and decreased by at 10 uM.
(§8) The adventitious root length of WT increased by 50% at 10 uM concentration of GA3, but it was not altered in the mutant (data not shown).
(§9) Plant Growth Conditions. Surface sterilized rice seeds were germinated and grown in cell culture containers (Phytatray II Sigma cell culture, USA) on 0.8% agar MS medium (Murashige and Skoog medium, Sigma., St. Louis Mo., USA) containing 1% of Suc for 2 weeks under 16/8 hours photoperiod. All chemicals used for the various treatments were purchased from Sigma.
(§10) Growth of WT and Mutant Seedlings in MeJA Containing Medium WT and mutant seeds were germinated and grown in MS medium (1% Suc) containing different concentrations of MeJA (1 μM, 5 μM, and 10 μM) for two weeks. No MeJA was added in the control. The number and length (cm) of adventitious roots as well as the number of lateral roots were measured.

[9] = tested on: Oslrk1 mutant seedlings; experiment: Growth of Oslrk1 mutant seedlings in MeJA or GA3 containing medium; type: in vivo, Oryza sativa
Protocol: as §7, §8, §9, §10

[10] = tested on: Oslrk1 gene; experiment: Northern-blot of Oslrk1 transcript in WT seedlings treated with sugars; type: in vivo, Oryza sativa; conditions: sugars 175 mM, 48 hours, Mannitol as osmotic control
Protocol: Lectins are known as carbohydrate-binding proteins that specifically recognize diverse sugar structures (Vijayan and Chandra, 1999). […] Five different sugars: glucose (Glu), sucrose (Suc), fructose (Fm), Gal and Man were used for this study along with Mannitol as an osmotic control (Methods). Northern-blot hybridizations were carried out on the total RNA isolated from treated seedlings.
RNA Isolation and Northern-blot Analysis. RNA was isolated from different organs of rice plant at different developmental stages (roots of 10-14 days old seedlings and 2 months old plants, 10-14 days old seedlings, young and mature leaves, panicles at the flowering stage and calli) using a RNeasy Plant mini kit (Qiagen,). […] For the control of RNA quantity, DIG-probe corresponding to rice Actin1 gene was synthesized using the following primers: […]
as §6, with “Act1). […]” for “Act1).”

[11] = tested on: adventitious roots; conditions: rice, Moons et al., 1997; cited from earlier work
[12] = tested on: Oslrk10; experiment: RT-PCR of Oslrks in treated 2 week-old seedlings; type: in vivo, Oryza sativa; conditions: Rt, treated vs control
Protocol: as §4, §5

[13] = tested on: Oslrk2; experiment: RT-PCR of Oslrks in treated 2 week-old seedlings; type: in vivo, Oryza sativa; conditions: treated vs control
Protocol: as §4, §5

[14] = GA3 10 uM, two weeks in MS agar
[15] = seedlings sprayed with 100 uM, time course 1-12 hours

## O=C[C@@H](O)[C@@H](O)[C@H](O)[C@H](O)CO (racemic) [Man, mannose]
[1]; mannose 0.1%
  effect on any parameters tested (shoot length, number and length of adventitious roots, germination rate): No obvious effect
[1]; mannose 0.2%
  seed germination rate: 35%
[1]; mannose 0.5%
  seed germination: did not germinate
[2]
  Oslrk11 expression by RT-PCR, Rt: I
[3]
  Oslrk4 expression by RT-PCR, Rt: I
[4]
  Oslrk8 expression by RT-PCR, Rt: I
[5]
  Oslrk5 expression by RT-PCR, Rt: I
  Oslrk5 expression by RT-PCR, Sh: R
[6]; Oslrk1 mutant, mannose 0.1%
  effect on any parameters tested (shoot length, number and length of adventitious roots, germination rate): No obvious effect
[6]; Oslrk1 mutant, mannose 0.2%
  seed germination rate: 35%
[6]; Oslrk1 mutant, mannose 0.5%
  seed germination: did not germinate
[6]
  behavior of the mutant compared with the WT upon treatment: No significant differences

## O=C(CO)[C@@H](O)[C@H](O)[C@H](O)CO [Fm, fructose]
[6]
  behavior of the mutant compared with the WT upon treatment: No significant differences

## C=C1C[C@]23C[C@@]1(O)CC[C@H]2[C@@]12C=C[C@H](O)[C@@](C)(C(=O)O1)[C@H]2[C@@H]3C(=O)O [GA3, Gibbrellic Acid]
[7]; 100 uM, 24 hours, WT seedlings
  Oslrk1 gene expression repressed by: 2.5 times
[8]; [14]
  adventitious root length increased by: 50%
[2]
  Oslrk11 expression by RT-PCR, Rt: I
[2]; Sh
  Oslrk11 expression by RT-PCR, Sh: R
[3]
  Oslrk4 expression by RT-PCR, Rt: I
[4]
  Oslrk8 expression by RT-PCR, Rt: I
[5]
  Oslrk5 expression by RT-PCR, Rt: I
[9]; [14]
  adventitious root length: not altered

## O=C[C@H](O)[C@@H](O)[C@H](O)[C@H](O)CO [Glu, glucose]
[3]
  Oslrk4 expression by RT-PCR, Rt: I
  Oslrk4 expression by RT-PCR, Sh: R
[4]
  Oslrk8 expression by RT-PCR, Rt: I
[4]; Sh
  Oslrk8 expression by RT-PCR, Sh: R
[6]
  behavior of the mutant compared with the WT upon treatment: No significant differences

## OC[C@@H](O)[C@@H](O)[C@H](O)[C@H](O)CO [Mannitol]
[10]
  Oslrk1 expression in response to sugars: not altered

## CC/C=C\CC1C(=O)CCC1CC(=O)OC (stereo not drawn) [MeJA, Methyl Jasmonate]
[7]; 100 uM, 24 hours, WT seedlings, compared to the control
  Oslrk1 transcript, intensity of the hybridization signal increased by: 3.2 times
[7]; [15]
  maximum induction of Oslrk1 expression relative to untreated sample: approximately 3 times
  time of maximum Oslrk1 induction: 8 h
[8]; MeJA 5 uM
  number of the lateral roots: increased
[8]; MeJA 10 uM
  number of adventitious roots: opposite to the effect observed at 5 uM
  number of the lateral roots: decreased
  reduction in length of adventitious roots: approximately 75%
[8]; MeJA 1, 5, 10 uM, two weeks
  shoot length: decreased
[8]; MeJA up to 5 uM
  number of adventitious roots: gradually increased
[3]
  Oslrk4 expression by RT-PCR, Rt: I
  Oslrk4 expression by RT-PCR, Sh: R
[5]
  Oslrk5 expression by RT-PCR, Rt: I
  Oslrk5 expression by RT-PCR, Sh: R
[11]
  concentration at which development of adventitious roots was inhibited: more than 3 μM
[9]; MeJA 10 uM
  number of adventitious roots: opposite to the effect observed at 5 uM
[9]; MeJA 1, 5, 10 uM
  number of lateral roots: no significant changes
[9]; MeJA 1, 5, 10 uM, two weeks
  shoot length: decreased
[9]; MeJA up to 5 uM
  number of adventitious roots: gradually increased
[9]; MeJA up to 10 uM
  length of adventitious roots: not reduced significantly

## O=C(O)c1ccccc1O [SA, Salicylic Acid]
[7]; 5 mM, 24 hours, WT seedlings
  Oslrk1 gene expression repressed by: 3.3 times
[12]
  Oslrk10 expression by RT-PCR, Rt: I
[2]
  Oslrk11 expression by RT-PCR, Rt: I
[3]
  Oslrk4 expression by RT-PCR, Rt: I
[4]
  Oslrk8 expression by RT-PCR, Rt: I
[5]
  Oslrk5 expression by RT-PCR, Rt: I

## OC[C@H]1O[C@@](CO)(O[C@H]2O[C@H](CO)[C@@H](O)[C@H](O)[C@H]2O)[C@@H](O)[C@@H]1O [Suc, sucrose]
[2]
  Oslrk11 expression by RT-PCR, Rt: I
[5]
  Oslrk5 expression by RT-PCR, Rt: I
  Oslrk5 expression by RT-PCR, Sh: I
[13]; Rt
  Oslrk2 expression by RT-PCR, Rt: I
[13]; Sh
  Oslrk2 expression by RT-PCR, Sh: R
